In US8598342B2, “Methods and compounds for antimicrobial intervention” (President and Fellows of Harvard College, priority 2008, dated 2013):

Molecular target: T1, S. aureus TarB (Staphylococcus aureus, UniProt Q2G2X4)
T1 construct: made in house
T1 sequence (Q2G2X4 1-367): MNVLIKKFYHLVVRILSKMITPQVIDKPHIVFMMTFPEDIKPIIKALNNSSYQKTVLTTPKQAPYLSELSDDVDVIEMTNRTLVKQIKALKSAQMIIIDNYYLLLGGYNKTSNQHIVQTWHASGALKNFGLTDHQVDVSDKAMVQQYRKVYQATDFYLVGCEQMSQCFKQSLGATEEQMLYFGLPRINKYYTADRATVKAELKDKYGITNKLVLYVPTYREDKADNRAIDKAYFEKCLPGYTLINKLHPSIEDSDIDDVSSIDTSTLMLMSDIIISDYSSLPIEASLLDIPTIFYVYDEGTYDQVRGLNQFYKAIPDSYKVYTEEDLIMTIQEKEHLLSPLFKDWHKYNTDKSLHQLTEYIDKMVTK
Assay: In vitro enzyme inhibition assay, TarB (radiometric)
Assay type: biochemical
Conditions: targocil 50 μg/mL; enzyme 200 nM
Experimental: S. aureus TarB, D, F, I, and L were cloned, overexpressed and purified as described previously (S. Brown, Y. H. Zhang, S. Walker, Chemistry & Biology 15, 12, Jan. 2008.) Radiometric in vitro assays were run to test the inhibitory effects of targocil on Tar B, D, F, and L, while TarI was assayed for targocil inhibition using an HPLC assay using conditions similar to those previously reported (ibid). See below for exact reaction conditions. […] In each case, a reaction with no targocil served as a negative control (active enzymatic reaction) and a reaction with heat-treated enzyme served as a positive control (no enzymatic reaction). Targocil was incubated with all reaction components except the substrates at room temperature. After 10 minutes, substrates were added and the reactions were allowed to proceed for 60 minutes. The reactions were quenched with DMF and the products were imaged/monitored as previously described (ibid).

CCN(CC)c1nc2c(S(=O)(=O)c3ccccc3)nnn2c2ccc(Cl)cc12 [7-chloro-N,N-diethyl-3-(phenylsulfonyl)-[1,2,3]triazolo[1,5-a]quinazolin-5-amine]
inhibition of TarB: None of these enzymes was inhibited
